Consider two compounds from publication PMC11191402, “High-Affinity NIR-Fluorescent Inhibitors for Tumor Imaging via Carbonic Anhydrase IX” (Bioconjugate Chemistry, 2024).

Data set [1] addresses T1, CAIX expressed on cell membranes of HeLa cells (Homo sapiens, UniProt Q16790).
T1 construct: an open reading frame for the full-length CAIX protein (1–459 amino acids) without a tag; expressed in transfected cells; host or cells: HeLa cells transfected with pCMV-CAIX (TurboFect), normoxia
The data set can be described thus: Fluorescence microscopy staining of live HeLa cells. As to conditions: 250 nM compound; pCMV-CAIX-transfected cells, normoxia. The class given is cell-based. From the text: Live HeLa cell culture was used for visualization of the NIR-fluorescent compound binding to CAIX expressed on cell membranes (Figures 3 and S2). […] Hypoxic conditions were insufficient for CAIX-specific fluorescence detection (Figure S3). Transfected cells expressed 10-fold more CAIX protein than cells grown under hypoxia, as determined by dosing the fluorescein-containing compound GZ19-32. […] We should point out that microphotographs in Figures 3 and S2 were taken at different exposure times to ensure good visualization quality. Nevertheless, all four compounds were suitable for direct visualization of CAIX expressed on transfected cell membranes.
For visualization of CAIX in live cells, HeLa cells were seeded in 12-well plates, and the next day they were transfected with the pCMV-CAIX plasmid to induce CAIX expression under normoxia. The TurboFect Transfection Reagent (Thermo Fisher) was used for this purpose according to manufacturer’s directions. Cells were stained and visualized next day after transfection. Nontransfected cells, grown under normoxia, were used as a control. For the induction of CAIX expression without transfection, cells were cultured under hypoxia for 3 days.
For cell imaging, live cells were incubated with the recombinant monoclonal antibody to CAIX (M75) (Absolute Antibody, #Ab00414–1.1) in the CO2 incubator for 30 min. The antibody stock solution (1 mg/mL) was used at a dilution of 1:150 in FluoroBright (FB)(Thermo Fisher) medium. After washing (3 × 5 min with DMEM in RT, gentle rock), cells were incubated with secondary Alexa Fluor 488 goat antimouse antibodies (2 mg/mL, Thermo Fisher), at a dilution of 1:200 in FB, in a CO2 incubator for 30 min. After washing (3 × 5 min with DMEM in RT and 2 × 1 min with PBS), cells were incubated with NIR-fluorescent inhibitors ([…] in PBS) in a CO2 incubator for 5–8 min. After washing (2 min + 2 × 1 min with PBS), PBS was replaced by FB, and 15 μL of NucBlue Live Cell Stain ReadyProbes reagent (Thermo Fisher) was added per well. After 5 min, cells were observed and photographed using an automated fluorescence microscope EVOS FL Auto (Thermo Fisher).

The target of another data set is T2, human recombinant CAVI (Homo sapiens, UniProt P23280).
T2 construct: Most isozymes were truncated, and only the catalytic domains of the proteins were produced; made in house; host or cells: bacterial expression system
On the set-up: method as in PMID 36271018. As to conditions: FTSA, 37 °C, pH 7.0; cited from earlier work.

Another data set concerns the target T3, human recombinant CAII (Homo sapiens, UniProt P00918).
T3 construct: made in house; host or cells: bacterial expression system
Also noted: method as in PMID 36271018. As to conditions: FTSA, 37 °C, pH 7.0; cited from earlier work.

For another data set, the target named is T4, human recombinant CAIV (Homo sapiens, UniProt P22748).
T4 construct: Most isozymes were truncated, and only the catalytic domains of the proteins were produced; made in house; host or cells: bacterial expression system
On the set-up: method as in PMID 36271018. As to conditions: FTSA, 37 °C, pH 7.0; cited from earlier work.

The target of a further data set is T5, human recombinant CAXII (Homo sapiens, UniProt O43570).
T5 construct: Most isozymes were truncated, and only the catalytic domains of the proteins were produced; made in house; host or cells: bacterial expression system
Also noted: method as in PMID 36271018. The following applies: FTSA, 37 °C, pH 7.0; cited from earlier work.

A further data set concerns the target T6, human recombinant CAVA (Homo sapiens, UniProt P35218).
T6 construct: Most isozymes were truncated, and only the catalytic domains of the proteins were produced; made in house; host or cells: bacterial expression system
On the set-up: method as in PMID 36271018. The following applies: FTSA, 37 °C, pH 7.0; cited from earlier work.

In another data set the target is T7, human recombinant CAVII (Homo sapiens, UniProt P43166).
T7 construct: made in house; host or cells: bacterial expression system
On the set-up: method as in PMID 36271018. The following applies: FTSA, 37 °C, pH 7.0; cited from earlier work.

In the next data set the target is T8, human recombinant CAXIV (Homo sapiens, UniProt Q9ULX7).
T8 construct: Most isozymes were truncated, and only the catalytic domains of the proteins were produced; made in house; host or cells: bacterial expression system
Also noted: method as in PMID 36271018. As to conditions: FTSA, 37 °C, pH 7.0; cited from earlier work.

The target of another data set is T9, human recombinant CAVB (Homo sapiens, UniProt Q9Y2D0).
T9 construct: Most isozymes were truncated, and only the catalytic domains of the proteins were produced; made in house; host or cells: bacterial expression system
Also noted: method as in PMID 36271018. The following applies: FTSA, 37 °C, pH 7.0; cited from earlier work.

A further data set addresses T10, human recombinant CAIII (Homo sapiens, UniProt P07451).
T10 construct: made in house; host or cells: bacterial expression system
On the set-up: method as in PMID 36271018. The following applies: FTSA, 37 °C, pH 7.0; cited from earlier work.

Molecules are shown by their SMILES. pKd: −log10 of the molar value.

T7 sequence (P43166 whole entry): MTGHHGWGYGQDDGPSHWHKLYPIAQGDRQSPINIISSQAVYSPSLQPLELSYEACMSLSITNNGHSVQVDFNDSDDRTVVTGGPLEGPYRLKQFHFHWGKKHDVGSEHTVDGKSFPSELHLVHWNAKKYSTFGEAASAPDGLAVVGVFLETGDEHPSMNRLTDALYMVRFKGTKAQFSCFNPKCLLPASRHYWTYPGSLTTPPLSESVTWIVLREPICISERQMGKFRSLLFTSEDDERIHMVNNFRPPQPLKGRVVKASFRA
T2 sequence (P23280 21-278 limits assumed): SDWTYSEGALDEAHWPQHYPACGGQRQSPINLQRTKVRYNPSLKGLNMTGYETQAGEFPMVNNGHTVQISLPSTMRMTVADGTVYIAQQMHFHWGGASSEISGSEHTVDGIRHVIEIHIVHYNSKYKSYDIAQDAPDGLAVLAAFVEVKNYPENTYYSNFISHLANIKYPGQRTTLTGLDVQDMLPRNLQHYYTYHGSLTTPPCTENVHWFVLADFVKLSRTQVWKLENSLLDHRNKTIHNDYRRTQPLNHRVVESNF
T6 sequence (P35218 39-296 limits assumed): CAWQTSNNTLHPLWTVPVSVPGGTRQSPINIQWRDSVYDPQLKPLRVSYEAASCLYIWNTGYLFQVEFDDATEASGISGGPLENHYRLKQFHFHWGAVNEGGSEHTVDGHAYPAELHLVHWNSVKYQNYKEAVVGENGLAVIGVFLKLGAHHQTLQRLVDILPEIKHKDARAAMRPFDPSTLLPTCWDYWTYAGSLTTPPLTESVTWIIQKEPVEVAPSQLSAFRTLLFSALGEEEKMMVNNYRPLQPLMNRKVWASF
T4 sequence (P22748 21-285 limits assumed): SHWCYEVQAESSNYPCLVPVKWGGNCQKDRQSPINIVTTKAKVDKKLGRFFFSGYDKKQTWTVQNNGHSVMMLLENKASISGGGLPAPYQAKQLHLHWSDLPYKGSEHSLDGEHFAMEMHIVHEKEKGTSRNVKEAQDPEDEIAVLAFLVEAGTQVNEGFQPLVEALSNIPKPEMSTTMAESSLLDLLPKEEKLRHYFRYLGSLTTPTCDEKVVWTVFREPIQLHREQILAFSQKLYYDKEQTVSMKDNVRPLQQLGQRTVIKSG
T9 sequence (Q9Y2D0 37-296 limits assumed): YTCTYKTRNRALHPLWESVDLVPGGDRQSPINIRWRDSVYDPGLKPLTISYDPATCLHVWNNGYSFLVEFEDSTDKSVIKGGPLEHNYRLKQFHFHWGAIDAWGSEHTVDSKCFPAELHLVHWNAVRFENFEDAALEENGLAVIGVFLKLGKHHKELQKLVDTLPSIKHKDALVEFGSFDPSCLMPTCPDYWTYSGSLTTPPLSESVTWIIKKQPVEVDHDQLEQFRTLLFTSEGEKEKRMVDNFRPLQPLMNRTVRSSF
T10 sequence (P07451 whole entry): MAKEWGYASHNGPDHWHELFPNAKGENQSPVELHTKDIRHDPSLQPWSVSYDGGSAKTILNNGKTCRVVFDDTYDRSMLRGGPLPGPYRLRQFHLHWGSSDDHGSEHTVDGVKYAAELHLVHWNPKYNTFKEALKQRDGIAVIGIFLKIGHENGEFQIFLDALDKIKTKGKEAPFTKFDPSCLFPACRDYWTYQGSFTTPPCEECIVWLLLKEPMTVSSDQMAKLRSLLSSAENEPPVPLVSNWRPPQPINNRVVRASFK
T5 sequence (O43570 30-289 limits assumed): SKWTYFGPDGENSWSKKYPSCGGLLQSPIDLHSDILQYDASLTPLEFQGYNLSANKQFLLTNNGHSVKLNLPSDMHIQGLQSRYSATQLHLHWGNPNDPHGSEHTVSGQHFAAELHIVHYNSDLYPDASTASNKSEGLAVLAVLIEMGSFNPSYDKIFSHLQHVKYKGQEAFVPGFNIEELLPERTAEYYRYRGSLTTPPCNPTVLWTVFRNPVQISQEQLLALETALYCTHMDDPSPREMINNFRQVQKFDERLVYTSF
T8 sequence (Q9ULX7 20-278 limits assumed): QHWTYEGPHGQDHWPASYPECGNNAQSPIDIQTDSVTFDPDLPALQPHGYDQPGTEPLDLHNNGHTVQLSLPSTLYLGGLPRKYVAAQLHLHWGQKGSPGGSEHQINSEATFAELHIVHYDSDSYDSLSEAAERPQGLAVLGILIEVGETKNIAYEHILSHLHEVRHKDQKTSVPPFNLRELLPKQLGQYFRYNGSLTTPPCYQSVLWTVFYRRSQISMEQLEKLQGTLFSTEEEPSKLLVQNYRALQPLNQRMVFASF

Compound `CC1(C)C(/C=C/C2=C(Oc3ccc(CCC(=O)O)cc3)C(=C/C=C3\N(CCCCS(=O)(=O)[O-])c4ccccc4C3(C)C)/CCC2)=[N+](CCCCS(=O)(=O)[O-])c2ccccc21.[Na+]` [GZ21-20, Sodium 4-((Z)-2-((E)-2-(2-(4-(2-Carboxyethyl)phenoxy)-3-((E)-2-(3,3-dimethyl-1-(4-sulfonatobutyl)-3H-indol-1-ium-2-yl)vinyl)cyclohex-2-en-1-ylidene)ethylidene)-3,3-dimethylindolin-1-yl)butane-1-sulfonate] yielded a melting point of 225 to 228 °C. Besides, the “staining of HeLa cells (NIR fluorescence microscopy)” value in [1] was “no visual response on transfected cells”.
Turning to `NS(=O)(=O)c1c(F)c(F)c(S(=O)(=O)CCC(=O)O)c(NC2CCCCCCC2)c1F` [GZ18-23, 3-((2-(Cyclooctylamino)-3,5,6-trifluoro-4-sulfamoylphenyl)sulfonyl)propanoic Acid], the melting point is 143 to 144 °C. Also, the negative logarithm of the Kd (pKd) at human recombinant CAVI was 7.00. For the same compound, the pKd on human recombinant CAII is 6.70. Besides, the pKd on human recombinant CAIV is 7.00. In addition, on human recombinant CAXII, the pKd was 8.85. For the same compound, the pKd at human recombinant CAVA is 5.00. For the same compound, the pKd at human recombinant CAVII is 7.40. Further, on human recombinant CAXIV, the pKd is 8.52. Moreover, on human recombinant CAVB, the pKd is 6.70. Also, the pKd on human recombinant CAIII was no more than 3.70.

In general, melting point refers to the temperature of the solid-liquid transition. One may read the pKd as the negative decadic logarithm of the Kd, by convention in mol/L.
